Test results from patent US20260234173A1, “STRUCTURED MOLECULAR VECTORS FOR ANTI-INFLAMMATORY COMPOUNDS AND USES THEREOF” (Universite Claude Bernard Lyon 1, priority 2019, published 2026).

Assays:
[1] = tested on: immortalized human microglia (IHM); test: Expression of inflammation markers in immortalized human microglia activated by IL-1β (RT-qPCR); assay type: cell-based; conditions: pre-treated with 150 nM and 300 nM 3 hours before IL-1β (3 ng/mL); RNA after 5 hours
Procedure: Immortalized human microglia (IHM; Innoprot, Derio, Spain) were seeded at 13,000 cells/cm^2 in T75 flasks coated with type I human collagen (10 μL/mL, Coating Matrix Kit, Innoprot). The medium was formulated for optimal growth of human brain-derived microglia in vitro, and contained 1% pen/strep, 1% of microglia growth supplement and 5% fetal bovine serum (Microglial Cell Medium Kit, Innoprot).
IHM were seeded (10,000 cells/cm^2) in type 1 collagen-coated 6-well plates. When cell culture was about 80% confluent, IL-1β (R&D Systems) was added to the culture medium at 0.5 ng/mL, 1.5 ng/mL or 3.0 ng/mL. At t=0, each well received 1 mL of medium only (controls) or 1 mL of medium containing the desired concentration of IL-1β. Cells were harvested at t=0 h, t=3 h, t=8 h and t=24 h. Each tested condition was repeated as triplicates.
The effect of synaptamide phosphonate has been tested as illustrated in FIG. 5. […]
PCR amplification of targeted cDNAs was performed using the Rotor-Gene Q system (Qiagen) and the QuantiTect SYBR Green PCR Kit (Qiagen).
The ScDNA copy number measured after qPCR was used to estimate the RT step yield for each sample, taking into account that the same number of SmRNA copies was initially present in all samples before RT step. This yield made it possible to standardize the values obtained for all the genes of interest measured from the same sample. […]

[2] = tested on: hippocampal LTP in healthy rats; test: Hippocampal LTP in slices from healthy rats treated in vivo; design: species or system rat; conditions: 2 mg/kg i.p. each day during 7 days (P21-P27)
Procedure: At P28-38, Sprague-Dawley rats were anesthetized with isoflurane, the forebrain was removed and placed in ice cold standard artificial cerebrospinal fluid (ACSF), consisting of (in mM): 124 NaCl, 5 KCl, 1.25 Na2HPO4, 2 MgSO4, 2 CaCl2), 26 NaHCO3, supplemented with 10 D-glucose, and bubbled with 95% O2 and 5% CO2. Hippocampal transverse slices were cut into 350 μm thick sections, using a vibratome (Leica VT1000S), and incubated in ACSF at room temperature for at least 1 h, before the transfer to the recording chamber. The ACSF used for perfusion was supplemented with picrotoxin (100 μM; Sigma-Aldrich), to block GABA-A receptors and therefore to facilitate the induction of NMDA receptors-dependent Long-Term Potentiation (LTP). […] Series resistance was continually monitored, and experiments were discarded if it changed by >20%.
Capillary glass pipettes filled with ACSF and connected to an Iso-Flex stimulus isolation unit (A.M.P.I.) were placed in stratum radiatum, to evoke excitatory postsynaptic potentials (EPSPs) in CA1 pyramidal neurons. […] LTP was induced by the theta burst pairing (TBP) protocol, which consisted of EPSPs paired with single back-propagating action potentials (b-APs), timed so that the b-AP (~15 ms delay) occurred at the peak of the EPSPs, as measured in the soma. […]

[3] = tested on: hippocampal LTP in rats subjected to Pilo-SE; test: Hippocampal LTP in slices from Pilo-SE rats treated in vivo (i.p. or per os); design: species or system rat; conditions: 1 h after cessation of SE then daily
Procedure: In this experiment we used male Sprague-Dawley rats (ENVIGO, Netherlands). Pups were received at 14 day-old (postnatal day 14 (P14)) with their foster mother, and were maintained in groups of 10 in plastic cages (405 mm×255 mm×197 mm) with free access to food and water. All animal procedures are in accordance with the guidelines of the Animal Care and Use Committee of the University Claude Bernard Lyon 1.
All injected solutions were prepared in sterile saline (0.9% w/v). At weaning (postnatal day 20 (P20)), Sprague-Dawley male rat pups were first injected i.p. with lithium chloride (127 mg/Kg; Sigma-Aldrich), to decrease the dose of pilocarpine needed to trigger Status Epilepticus (SE). Scopolamine methylnitrate (1 mg/Kg; Sigma-Aldrich) was injected s.c. 18 h later, to alleviate peripheral cholinergic adverse side effects. Pilocarpine hydrochloride (25 mg/Kg; Sigma-Aldrich) was injected i.p. 30 min later, to induce SE. […] The rats were placed on a heated pad, under continuous observation, until they recovered from sedation. Following recovery, the rats were returned to the nursing mother until P23. Control rats only received saline injections. All rats were then housed in groups of 10 and weighed daily, during the 5 following days, to control for food intake, and then twice weekly until the end of experiment (three weeks post SE).
At P28-38, Sprague-Dawley rats were anesthetized with isoflurane, the forebrain was removed and placed in ice cold standard artificial cerebrospinal fluid (ACSF), consisting of (in mM): 124 NaCl, 5 KCl, 1.25 Na2HPO4, 2 MgSO4, 2 CaCl2), 26 NaHCO3, supplemented with 10 D-glucose, and bubbled with 95% O2 and 5% CO2. Hippocampal transverse slices were cut into 350 μm thick sections, using a vibratome (Leica VT1000S), and incubated in ACSF at room temperature for at least 1 h, before the transfer to the recording chamber. The ACSF used for perfusion was supplemented with picrotoxin (100 μM; Sigma-Aldrich), to block GABA-A receptors and therefore to facilitate the induction of NMDA receptors-dependent Long-Term Potentiation (LTP). CA1 pyramidal cells were visualized with a Zeiss Axioskop 2, equipped with a X40 objective, using infrared video microscopy and differential interference contrast optics. Whole-cell recordings from pyramidal neurons in the CA1 layer were obtained with patch electrodes, which were filled with a solution containing (in mM): 120 potassium gluconate, 20 KCl, 0.2 EGTA, 2 MgCl2, 10 HEPES, 4 Na2ATP, 0.3 Tris-GTP and 14 mM phosphocreatine (pH 7.3, adjusted with KOH). Drugs were applied in the bath of the hippocampal slices. Electrode resistances ranged from 3-5 MΩ. Series resistance was continually monitored, and experiments were discarded if it changed by >20%.
Capillary glass pipettes filled with ACSF and connected to an Iso-Flex stimulus isolation unit (A.M.P.I.) were placed in stratum radiatum, to evoke excitatory postsynaptic potentials (EPSPs) in CA1 pyramidal neurons. Cells were held at −70 mV to record EPSPs, and the stimulation strength was set to evoke EPSPs between 5-8 mV. LTP was induced by the theta burst pairing (TBP) protocol, which consisted of EPSPs paired with single back-propagating action potentials (b-APs), timed so that the b-AP (~15 ms delay) occurred at the peak of the EPSPs, as measured in the soma. A single burst contained five pairs delivered at 100 Hz and ten bursts were delivered at 5 Hz per sweep. Three sweeps were delivered at 10 s intervals for a total of 30 bursts (150 b-AP-EPSP pairs). The b-APs were elicited by direct somatic current injection (1 ms, 1-2 nA). This induction protocol was always applied within 20 min of achieving whole-cell configuration, to avoid “wash-out” of LTP.

## CCC=CCC=CCC=CCC=CCC=CCC=CCCC(=O)NCCP(=O)(O)O [synaptamide phosphonate]
[1]
  IL-1β-mediated cytokine and chemokine gene induction: dramatic reduction
[2]
  LTP magnitude (EPSP amplitude, % of baseline): 212.11±12.9%
[3]; 2 mg/kg i.p.
  LTP magnitude (EPSP amplitude, % of baseline): 183.07±9.02%
[3]; 5 mg/kg i.p.
  LTP magnitude (EPSP amplitude, % of baseline): 162.4±11.9%
[3]; 10 mg/kg i.p.
  LTP magnitude (EPSP amplitude, % of baseline): 162.78±12.23%
[3]; 10 mg/kg per os
  LTP magnitude (EPSP amplitude, % of baseline): 110.7±4.7%
[3]; 30 mg/kg per os
  LTP magnitude (EPSP amplitude, % of baseline): 146.16±10%
[3]; 100 mg/kg per os
  LTP magnitude (EPSP amplitude, % of baseline): 162.6±9.2%
